According to US20240366586A1, “METHODS AND AGENTS FOR MODULATING THE IMMUNE RESPONSE” (The Regents of the University of California, priority 2021, published 2024):

Columns and labels:
psoriasis = assay: Treatment example: patient with psoriasis; assay type: in vivo, human; details: topical formulation
Experimental: A patient with psoriasis is treated with a topical formulation of N-(2-furylmethyl)-N-[(6-methoxy-2-oxo-1H-quinolin-3-yl)methyl]-4-methyl-benzamide (Compound I-1).

lichen planus = assay: Treatment example: patient with lichen planus; assay type: in vivo, human; details: combination with crisaborole, both administered topically
Experimental: A patient with lichen planus is treated with a combination of N-(2-furylmethyl)-N-[(6-methoxy-2-oxo-1H-quinolin-3-yl)methyl]-4-methyl-benzamide (Compound I-1) and crisaborole, both administered topically.

Il12b [1] = assay: RNA-Seq / ATAC-Seq of lipopolysaccharide-induced genes in treated macrophages; assay type: cell-based; details: for rank of Il12b among the most strongly inhibited lipopolysaccharide-induced genes: genes with RPKM>4 and FC>10, ranked by fold change (Max RPKM with/without compound)
Description: Our screening experiment identified as compounds that […]. Using ATAC-Seq and RNA-Seq analyses, we confirmed that the screen indeed identified hits that work by affecting chromatin, and confirmed that β adrenergic agonists, (and in particular β2 adrenergic agonists) are indeed exquisitely selective inhibitors of Il12b gene expression.
(§1) The inhibition of Il12b by β agonists occurs upon stimulation of macrophages with other inflammatory stimuli, including CpG DNA, double stranded RNA, and imiquimod. We confirmed that the cAMP/PKA pathway, but not the exchange factor directly activated by cAMP (EPAC) pathway, was largely responsible for mediating the Il12b suppression by 0-agonists.
FIG. 7B depicts a fold change box plot in samples treated with UK17 (3-fluoro-N′-[(5-nitro-2-thienyl)methylene]benzohydrazide (CID #6895129)), classifying lipopolysaccharide-induced genes by gene-regulation cluster as previously described in Tong A. et al., A Stringent Systems Approach Uncovers Gene-Specific Mechanisms Regulating Inflammation, Cell 165 165-179 (2016). Box plots indicate the distribution of fold change values for each cluster. Red lines are drawn at 1 and −1, indicating a 2-fold up or down-regulation of genes. Il12b is labeled in red.

chronic eczema = assay: Treatment example: patient with chronic eczema; assay type: in vivo, human; details: topical formulation
Il12b [2] = assay: Dual-fluorescence reporter macrophage cell line screen, lipopolysaccharide-stimulated: chromatinized Il12b-eGFP versus minimal Il12b-DsRed reporter; assay type: cell-based; details: lipopolysaccharide-stimulated dual-fluorescence reporter macrophage cell line
Description: We hypothesized that molecules that inhibit the “chromatinized” Il12b reporter but not the “minimal” Il12b reporter would offer a greater degree of Il12b inhibition selectivity.
We generated a dual-fluorescence reporter macrophage cell line having both a [Il12b]-[eGFP] chromatin-based construct and a [Il12b]-[DSred] plasmid vector. FIG. 3. We then stimulated an […] response in the cell line using lipopolysaccharide, an activator of Il12b expression, and tested a library of over 60,000 known and unknown (i.e., undescribed in the literature) small-molecule compounds.
Additional compounds in Formulas (I)-(IV) were screened following the same procedure as described above, with eGFP fluorescence as a readout for inhibition of IL12b.

vitiligo = assay: Treatment example: patient with vitiligo; assay type: in vivo, human; details: topical formulation
Experimental: A patient with vitiligo is treated with a topical formulation of 11-(5-hydroxy-2-nitrobenzyl)-7,11-diazatricyclo[7.3.1.0˜2,7˜]trideca-2,4-dien-6-one (Compound III-1).

Behçet's disease = assay: Treatment example: patient with Behçet's disease; assay type: in vivo, human; details: topical formulation
alopecia = assay: Treatment example: patient with alopecia; assay type: in vivo, human; details: topical formulation also comprising apremilast
[3] = tested on: imiquimod-induced psoriasiform dermatitis; assay: Imiquimod-induced psoriasiform dermatitis model, PASI clinical scoring; assay type: in vivo; details: WT mice, topical imiquimod, daily intraperitoneal injection, vs saline/PBS
Description: FIG. 16 depicts histology of WT mice or b1/b2 KO mice 5 days after topically applying imiquimod to their skin. Histology confirms greater thickening and scale of the skin in b1/b2 KO mice.
FIG. 19 depicts WT mice given intraperitoneal injection of the b2 selective adrenergic agonist clenbuterol or vehicle control (saline) daily in mice given topical imiquimod to induce psoriasiform dermatitis.
FIG. 20 depicts the PASI clinical scoring PBS-treated WT mice versus clenbuterol-treated WT mice.

Il12b [4] = assay: Il12b expression in human macrophages treated with PGE2 (RNA-Seq, RPKM vs DMSO); assay type: cell-based
Description: as §1
FIG. 10 depicts a heatmap of percent expression of RPKMs as a percent of the maximum RPKM within the DMSO sample for genes with RPKMs>3 and FC>10 in at least one DMSO timepoint. The heatmap represents that for the averaged samples for each gene between Donor 0 IL34 and Donor 0 MCSF. In the left heatmap, red indicates percent expression equal to or higher than 100%. DMSO and PGE2 samples are indicated as such for timepoints 0 hr, 1 hr, 2 hr, and 6 hr. […] Here, red represents a positive difference equal to or over 100%, indicating induction, and blue representing a negative difference equal to or less than −100%, indicating inhibition. (n=2).
FIG. 11 depicts log 2 of the fold change of RPKMS after PGE2-treatment and those after DMSO treatment are shown in this scatter plot for genes with RPKMs>3 and FC>10 in at least on DMSO timepoint and this graph represents the 6-hour timepoint. […]

## COc1ccc2[nH]c(=O)c(CN(Cc3ccco3)C(=O)c3ccc(C)cc3)cc2c1 [Compound I-1, N-(2-furylmethyl)-N-[(6-methoxy-2-oxo-1H-quinolin-3-yl)methyl]-4-methyl-benzamide]
psoriasis
  clinical outcome: Resolution of symptoms
Lichen planus
  clinical outcome: Resolution of symptoms

## O=C(NN=Cc1ccc([N+](=O)[O-])s1)c1cccc(F)c1 [II-1, 3-fluoro-N′-[(5-nitro-2-thienyl)methylene]benzohydrazide]
Il12b [1]
  rank of Il12b among the most strongly inhibited lipopolysaccharide-induced genes: ≤ 20
Chronic eczema
  clinical outcome: Resolution of symptoms
Il12b [2]
  selective inhibition of the chromatinized Il12b reporter (eGFP) but not the minimal reporter (DsRed): selective inhibitors of chromatinized Il12b
Il12b [2]; listed as UK17
  selective inhibition of the chromatinized Il12b reporter (eGFP) but not the minimal reporter (DsRed): selective for inhibition of chromatinized Il12b

## O=c1cccc2n1CC1CC2CN(Cc2cc(O)ccc2[N+](=O)[O-])C1 (stereo not drawn) [III-1, 11-(5-hydroxy-2-nitrobenzyl)-7,11-diazatricyclo[7.3.1.0˜2,7˜]trideca-2,4-dien-6-one]
vitiligo
  clinical outcome: Resolution of vitiligo
Il12b [2]
  selective inhibition of the chromatinized Il12b reporter (eGFP) but not the minimal reporter (DsRed): selective inhibitors of chromatinized Il12b

## COc1ccc(Br)cc1/C=C/C(=O)c1ccc(OC)c(OC)c1 [IV-1, 3-(5-bromo-2-methoxyphenyl)-1-(3,4-dimethoxyphenyl)-2-propen-1-one]
Il12b [1]
  rank of Il12b among the most strongly inhibited lipopolysaccharide-induced genes: ≤ 20
Behçet's disease
  clinical outcome: Resolution of disease
Il12b [2]
  selective inhibition of the chromatinized Il12b reporter (eGFP) but not the minimal reporter (DsRed): selective inhibitors of chromatinized Il12b
alopecia
  clinical outcome: Resolution of alopecia

## CC(C)(C)NCC(O)c1cc(Cl)c(N)c(Cl)c1 (stereo not drawn) [clenbuterol]
[3]
  PASI clinical score: reduction in score

## CCCCC[C@H](O)/C=C/[C@H]1[C@H](O)CC(=O)[C@@H]1C/C=C\CCCC(=O)O [prostaglandin E2, reference compound]
Il12b [1]; RNA-Seq and ATAC-Seq analyses, macrophages
  selective inhibition of Il12b gene expression: selectively inhibit IL12b expression
Il12b [4]
  selective inhibition of Il12b in human macrophages: exquisitely selective inhibitor of Il12b
